Laboratory results published in DBAASP.
≈ marks a conversion by molar mass, not a printed value. Each block holds one compound with its values, some of them ahead of it.

How the values were obtained:
Test in all cases: ≥ marks a high value that may be exact or a test limit, other limits are often not marked, values filed in µg/mL are converted to µM
[1] = test system: Staphylococcus aureus ATCC 25923
[2] = test system: Salmonella enterica subsp. enterica serovar Typhimurium ATCC 14028
Escherichia coli ML-35 = test system: Escherichia coli ML-35
Bacillus megaterium Bm11 = test system: Bacillus megaterium Bm11
[3] = test system: Staphylococcus aureus KCTC 1621
[4] = test system: Bacillus subtilis KCTC 1918
Proteus vulgaris = test system: Proteus vulgaris
[5] = test system: Bacillus megaterium KCTC 1096
[6] = test system: Escherichia coli KCTC 1682
[7] = test system: Pseudomonas aeruginosa KCTC 1637
Escherichia coli KF111 = test system: Escherichia coli KF111
[8] = test system: Pseudomonas aeruginosa H374
[9] = test system: Pseudomonas aeruginosa H744
Escherichia coli KF130 = test system: Escherichia coli KF130
[10] = test system: Salmonella enterica subsp. enterica serovar Typhimurium ATCC 14028s
[11] = test system: Pseudomonas aeruginosa ATCC 27853
Escherichia coli UB1005 = test system: Escherichia coli UB1005
[12] = test system: Pseudomonas aeruginosa K799
[13] = test system: Staphylococcus epidermidis
[14] = test system: Pseudomonas aeruginosa ATCC 13388
[15] = test system: Staphylococcus aureus ATCC 6538
[16] = test system: Klebsiella pneumoniae ATCC 10031
[17] = test system: Escherichia coli ATCC 11219
[18] = test system: Xanthomonas campestris pv. Vesicatoria 2133-2
[19] = test system: Erwinia amylovora PMV 6076
[20] = test system: Pseudomonas syringae pv. syringae EPS 94
[21] = test system: Staphylococcus aureus FDA 209P
[22] = test system: Bacillus subtilis ATCC 6633

Structure (SMILES): CC[C@H](C)[C@H](NC(=O)[C@H](CCCCN)NC(=O)[C@H](CCCCN)NC(=O)[C@H](CCCN=C(N)N)NC(=O)[C@H](CC(C)C)NC(=O)[C@H](CCCN=C(N)N)NC(=O)[C@H](CCCN=C(N)N)NC(=O)[C@H](CC(C)C)NC(=O)[C@H](CC(C)C)NC(=O)CN)C(=O)NCC(=O)N[C@@H](CCC(=O)O)C(=O)N[C@H](C(=O)N[C@@H](Cc1ccccc1)C(=O)N[C@@H](CCCCN)C(=O)N[C@@H](CCCCN)C(=O)N[C@@H](Cc1ccc(O)cc1)C(=O)NCC(=O)O)[C@@H](C)CC [GLLRRLRKKIGEIFKKYG]
MIC [1]: 4 µM (≈ 8.7 µg/mL)
MIC [2]: 1 µM (≈ 2.18 µg/mL)
MIC (Escherichia coli ML-35): 2 µM (≈ 4.35 µg/mL)
MIC (Bacillus megaterium Bm11): 4 µM (≈ 8.7 µg/mL)

Structure (SMILES): CC[C@H](C)[C@H](NC(=O)[C@@H]1CCCN1C(=O)[C@H](CCCCN)NC(=O)[C@H](CC(C)C)NC(=O)[C@H](C)NC(=O)[C@@H](NC(=O)[C@H](Cc1ccc(O)cc1)NC(=O)[C@H](Cc1ccccc1)NC(=O)[C@@H](NC(=O)[C@@H](NC(=O)[C@H](CCCCN)NC(=O)[C@@H](NC(=O)[C@@H]1CCCN1C(=O)[C@H](CO)NC(=O)[C@H](CCCCN)NC(=O)[C@H](Cc1ccccc1)NC(=O)[C@@H](NC(=O)[C@H](CCCCN)NC(=O)[C@H](CC(C)C)NC(=O)[C@H](Cc1ccccc1)NC(=O)[C@H](CO)NC(=O)[C@H](CCCCN)NC(=O)[C@H](Cc1c[nH]c2ccccc12)NC(=O)[C@@H](N)CCCCN)[C@@H](C)O)C(C)C)[C@@H](C)O)C(C)C)[C@@H](C)O)C(=O)N[C@@H](CO)C(=O)N[C@@H](CO)C(=O)O [KWKSFLKTFKSPVKTVFYTALKPISS]
MIC (Escherichia coli KF111): 1.32 µM (≈ 4 µg/mL)
MIC [8]: 10.6 µM (≈ 32 µg/mL)
MIC [9]: 10.6 µM (≈ 32 µg/mL)
MIC (Escherichia coli KF130): 1.32 µM (≈ 4 µg/mL)
MIC [10]: 5.28 µM (≈ 16 µg/mL)
MIC [11]: 8 µM (≈ 24.3 µg/mL)
MIC (Escherichia coli UB1005): 0.659 µM (≈ 2 µg/mL)
MIC [12]: 10.6 µM (≈ 32 µg/mL)
MIC [13]: 10.6 µM (≈ 32 µg/mL)

Structure (SMILES): CC[C@H](C)[C@H](NC(=O)CNC(=O)[C@@H](N)Cc1c[nH]c2ccccc12)C(=O)N[C@@H](CCCN=C(N)N)C(=O)N[C@@H](CC(=O)O)C(=O)N[C@H](C(=O)N[C@@H](CC(C)C)C(=O)N[C@@H](CCCCN)C(=O)N[C@@H](Cc1ccc(O)cc1)C(=O)NCC(=O)N[C@@H](CCCCN)C(=O)N1CCC[C@H]1C(=O)N[C@@H](CO)C(=O)O)[C@@H](C)CC [WGIRDILKYGKPS]
MIC [14]: 5 µM (≈ 7.66 µg/mL)
MIC [2]: 8 µM (≈ 12.3 µg/mL)
MIC [15]: 15 µM (≈ 23 µg/mL)
MIC [16]: 30 µM (≈ 46 µg/mL)
MIC [17]: 15 µM (≈ 23 µg/mL)

Structure (SMILES): CC[C@H](C)[C@H](NC(=O)CN)C(=O)N[C@@H](CCCCN)C(=O)N[C@@H](CCCCN)C(=O)N[C@H](C(=O)N[C@@H](CC(C)C)C(=O)N[C@@H](CCCCN)C(=O)N[C@@H](Cc1ccc(O)cc1)C(=O)NCC(=O)N[C@@H](CCCCN)C(=O)N[C@@H](CCCCN)C(=O)N[C@@H](CO)C(N)=O)[C@@H](C)CC [GIKKILKYGKKS]
MIC [14]: ≥ 50 µM
MIC [2]: 20 µM (≈ 27.2 µg/mL)
MIC [15]: 5 µM (≈ 6.81 µg/mL)
MIC [16]: ≥ 50 µM
MIC [17]: 20 µM (≈ 27.2 µg/mL)

Structure (SMILES): CC[C@H](C)[C@H](NC(=O)[C@@H]1CCCN1C(=O)[C@H](CCCCN)NC(=O)[C@H](CC(C)C)NC(=O)[C@H](C)NC(=O)[C@@H](NC(=O)[C@@H](NC(=O)[C@H](CC(C)C)NC(=O)[C@@H](NC(=O)[C@H](CCCCN)NC(=O)[C@H](CCCCN)NC(=O)[C@H](C)NC(=O)[C@H](C)NC(=O)[C@H](CO)NC(=O)[C@@H](NC(=O)[C@H](CC(C)C)NC(=O)[C@H](CCCCN)NC(=O)[C@H](CCCCN)NC(=O)[C@H](CC(C)C)NC(=O)[C@H](Cc1ccccc1)NC(=O)[C@H](CO)NC(=O)[C@H](CCCCN)NC(=O)[C@H](Cc1c[nH]c2ccccc12)NC(=O)[C@@H](N)CCCCN)[C@@H](C)O)C(C)C)[C@@H](C)O)[C@@H](C)O)C(=O)N[C@@H](CO)C(=O)N[C@@H](CO)C(=O)O [KWKSFLKKLTSAAKKVLTTALKPISS]
MIC (Escherichia coli KF111): 0.348 µM (≈ 1 µg/mL)
MIC [8]: 1.39 µM (≈ 4 µg/mL)
MIC [9]: 1.39 µM (≈ 4 µg/mL)
MIC (Escherichia coli KF130): 0.348 µM (≈ 1 µg/mL)
MIC [10]: 1.39 µM (≈ 4 µg/mL)
MIC [11]: 4 µM (≈ 11.5 µg/mL)
MIC (Escherichia coli UB1005): 0.348 µM (≈ 1 µg/mL)
MIC [12]: 2.78 µM (≈ 8 µg/mL)
MIC [13]: 1.39 µM (≈ 4 µg/mL)

Structure (SMILES): CC[C@H](C)[C@H](NC(=O)CN)C(=O)N[C@@H](Cc1cnc[nH]1)C(=O)N[C@@H](CCCCN)C(=O)N[C@H](C(=O)N[C@@H](CC(C)C)C(=O)N[C@@H](CCCCN)C(=O)N[C@@H](Cc1ccc(O)cc1)C(=O)NCC(=O)N[C@@H](CCCCN)C(=O)N1CCC[C@H]1C(=O)N[C@@H](CO)C(N)=O)[C@@H](C)CC [GIHKILKYGKPS]
MIC [14]: 20 µM (≈ 26.8 µg/mL)
MIC [2]: 10 µM (≈ 13.4 µg/mL)
MIC [15]: 10 µM (≈ 13.4 µg/mL)
MIC [16]: 5 µM (≈ 6.7 µg/mL)
MIC [17]: 5 µM (≈ 6.7 µg/mL)

Structure (SMILES): CC(C)C[C@H](NC(=O)[C@H](CCC(N)=O)NC(=O)[C@H](CCC(N)=O)NC(=O)[C@H](C)NC(=O)CNC(=O)[C@H](C)NC(=O)[C@H](CCCCN)NC(=O)CNC(=O)[C@@H](NC(=O)[C@H](CO)NC(=O)[C@H](CCCCN)NC(=O)[C@H](CC(C)C)NC(=O)[C@H](CC(C)C)NC(=O)[C@H](Cc1ccc(O)cc1)NC(=O)[C@H](CCCCN)NC(=O)[C@H](C)NC(=O)CNC(=O)[C@H](C)NC(=O)[C@H](CCCCN)NC(=O)[C@H](Cc1ccccc1)NC(=O)[C@H](CC(C)C)NC(=O)[C@H](CO)NC(=O)[C@H](CO)NC(=O)[C@H](Cc1ccccc1)NC(=O)CN)C(C)C)C(=O)N[C@@H](C)C(=O)N[C@H]1CSSC[C@@H](C(=O)N[C@@H](C)C(=O)O)NC(=O)[C@H](CC(N)=O)NC(=O)[C@H](CC(N)=O)NC(=O)[C@H](C)NC(=O)[C@H](C)NC(=O)[C@H](CCCCN)NC1=O [GFSSLFKAGAKYLLKSVGKAGAQQLACKAANNCA]
MIC [21]: 4.36 µM (≈ 14.9 µg/mL)
MIC [22]: 18.7 µM (≈ 64 µg/mL)

Continued, values first:

MIC [3]: 6.25 µM (≈ 14.3 µg/mL)
MIC [4]: 1.56 µM (≈ 3.57 µg/mL)
MIC (Proteus vulgaris): 6.25 µM (≈ 14.3 µg/mL)
MIC [5]: 3.12 µM (≈ 7.16 µg/mL)
MIC [6]: 25 µM (≈ 57.2 µg/mL)
MIC [7]: 6.25 µM (≈ 14.3 µg/mL)
Structure (SMILES): CC[C@H](C)[C@H](NC(=O)[C@H](CCCCN)NC(=O)[C@H](CCCCN)NC(=O)[C@H](Cc1ccccc1)NC(=O)[C@H](CC(C)C)NC(=O)[C@H](CCCCN)NC(=O)[C@H](Cc1c[nH]c2ccccc12)NC(=O)[C@@H](N)CCCCN)C(=O)N[C@@H](CO)C(=O)N[C@@H](CCCCN)C(=O)N[C@@H](Cc1ccccc1)C(=O)N[C@@H](CC(C)C)C(=O)N[C@@H](Cc1cnc[nH]1)C(=O)N[C@@H](CC(C)C)C(=O)N[C@@H](C)C(=O)N[C@@H](CCCCN)C(=O)N[C@@H](CCCCN)C(=O)N[C@@H](Cc1ccccc1)C(N)=O [KWKLFKKISKFLHLAKKF]

MIC [18]: ≥ 100 µM
MIC [19]: ≥ 100 µM
MIC [20]: ≥ 100 µM
Structure (SMILES): CC(C)C[C@H](NC(=O)[C@H](Cc1cnc[nH]1)NC(=O)[C@H](CCC(=O)O)NC(=O)[C@H](Cc1c[nH]c2ccccc12)NC(=O)[C@H](CC(=O)O)NC(=O)[C@H](CCCCN)NC(=O)[C@H](CC(C)C)NC(=O)[C@H](Cc1cnc[nH]1)NC(=O)[C@H](CCC(=O)O)NC(=O)[C@H](Cc1c[nH]c2ccccc12)NC(=O)[C@H](CC(=O)O)NC(=O)[C@H](CCCCN)NC(=O)[C@H](CC(C)C)NC(=O)[C@H](Cc1cnc[nH]1)NC(=O)[C@H](CCC(=O)O)NC(=O)[C@H](Cc1c[nH]c2ccccc12)NC(=O)[C@H](CC(=O)O)NC(=O)[C@@H](N)CCCCN)C(=O)O [KDWEHLKDWEHLKDWEHL]

MIC [3]: 3.12 µM (≈ 6.66 µg/mL)
MIC [4]: 0.78 µM (≈ 1.66 µg/mL)
MIC (Proteus vulgaris): 1.56 µM (≈ 3.33 µg/mL)
MIC [5]: 0.78 µM (≈ 1.66 µg/mL)
MIC [6]: 6.26 µM (≈ 13.4 µg/mL)
MIC [7]: 1.56 µM (≈ 3.33 µg/mL)
Structure (SMILES): CC[C@H](C)[C@H](NC(=O)[C@H](CCCCN)NC(=O)[C@H](CCCCN)NC(=O)[C@H](Cc1ccccc1)NC(=O)[C@H](CC(C)C)NC(=O)[C@H](CCCCN)NC(=O)[C@@H](N)Cc1ccccc1)C(=O)N1CCC[C@H]1C(=O)N[C@@H](CCCCN)C(=O)N[C@@H](Cc1ccccc1)C(=O)N[C@@H](CC(C)C)C(=O)N[C@@H](Cc1cnc[nH]1)C(=O)N[C@@H](CC(C)C)C(=O)N[C@@H](C)C(=O)N[C@@H](CCCCN)C(=O)N[C@@H](CCCCN)C(=O)N[C@@H](Cc1ccccc1)C(N)=O [FKLFKKIPKFLHLAKKF]
